# Where a SMILES comes first, the peptide text is derived from it.
# Experiments:
# HIV-1IIIB = test: HIV-1 antiviral assay (CPE reduction, MTS); assay type: cell-based; conditions: peptide 10 micrograms per ml, 6 days post-infection
# [1] = Cytotoxicity in HIV-1 assay (MTS cell viability); conditions: human, CEM-SS cells
# [2] = Cytotoxicity in HBV assay (dye uptake cell viability); assay type: cell-based; conditions: human, HepG2-2.2.15 cells, test peptide 10 micrograms per ml
# Pseudomonas aeruginosa = Pseudomonas aeruginosa assay; assay type: cell-based; conditions: Pseudomonas aeruginosa growth; peptide 10 micrograms per ml; read visually
# [3] = Cytotoxicity in HCMV assay (CellTiter 96 cell viability); conditions: human, MRC-5 cells (embryonal lung fibroblasts)
# [4] = tested on: Human Peripheral Blood Mononuclear Cells (PBMC); test: B cell proliferation assay (SAC plus Interleukin-2, 3H-thymidine); assay type: cell-based; conditions: test peptide 10 micrograms per ml
# Experimental: Human Peripheral Blood Mononuclear Cells (PBMC) were obtained from normal human donors. The B cell proliferation was induced by stimulation of the cells with the B cell mitogen Staphylococcus aureus Cowans I (SAC) plus Interleukin-2, either in the absence (positive proliferation control), or in the presence of test peptide—10 micrograms per ml—to examine their effects on the B cell response. 10^5/well PBMC were plated in 96-well microtiter plates and assayed in duplicate with the peptide. Cell cultures were incubated at 37° C. for 3 days in a 5% CO2 incubator and were thereafter pulsed with 1 microCi/well ^3H-thymidine for additional 12 hours of culture. At the end of incubation time, the plates were harvested and the cells counted by liquid scintillation for the incorporation of ^3H-thymidine as a measure of B cell proliferation.
# MRSA = test: Methicillin Resistant Staphylococcus Aureus (MRSA) assay; assay type: cell-based; conditions: MRSA growth; peptide 10 micrograms per ml; read visually
# Interleukin-5 (IL-5) = test: Th1/Th2 cytokine profiling assay: IL-5; assay type: cell-based, Balb/c mice; conditions: Ovalbumin-restimulated spleen cells; test peptide 10 micrograms per ml; 72 hours
# From the text: (§1) The Balb/c mice (originated in 1923, it is a popular strain and is used in many different research disciplines. Also classified as an inbred from the production of 20 or more successive brother-sister matings, the Balb/c mouse is albino and small in size) were immunized on Days 1, 15, and 29 with Ovalbumin (Ovalbumin is the main protein found in egg white, commonly used to stimulate an immunological reaction in test animals) in PBS (5 micrograms/injection). On day 50, spleens of the mice were harvested (3 weeks after last boost with Ovalbumin). Cells were cultured (2×10^5/well in triplicate) and incubated with culture medium or test peptide—10 micrograms per ml—for 30 min. Thereafter, additional Ovalbumin was added to the cells at 10 micrograms/ml for in vitro restimulation of the cells. 72 hours later, cell supernatants were harvested and assayed using the Becton Dickinson Mouse Th1/Th2 Cytokine CBA Kit. This kit can be used to measure Interleukin-2 (IL-2), Interleukin-4 (IL-4), Interleukin-5 (IL-5), Interferon-γ (IFN-γ), and Tumor Necrosis Factor-α (TNF-α) protein levels in a single sample. The kit performance has been optimized for analysis of physiologically relevant concentrations ([…] levels) of specific cytokine proteins in tissue culture supernatants and serum samples.
# TNF alpha = TNF alpha production assay (LPS-stimulated macrophages, ELISA); assay type: cell-based; conditions: human macrophages, test peptide 10 micrograms per ml, lipopolysaccharide 200 ng/ml, overnight
# Experimental: Human Peripheral Blood Mononuclear Cells (PBMC) were obtained from normal human donors. The macrophages were prepared by adherence of PBMC to the plastic wells of the plates. After 8 days in culture in the presence of recombinant human macrophage-colony stimulating factor at 2 ng/ml, differentiated macrophages were preincubated with test peptide—10 micrograms per ml—for 30 min, followed by in-well stimulation by the addition of lipopolysaccharide at a final concentration of 200 ng/ml. Not stimulated macrophages served as negative background control.
# After overnight incubation, supernatants from the control and LPS-stimulated cultures were harvested and assayed for TNF alpha production employing a TNF alpha specific ELISA.
# HUVEC = test: Endothelial tube formation assay; assay type: cell-based, human; conditions: test peptide 10 micrograms per ml, 20 hours
# Experimental: The endothelial tube formation assay is based on the ability of endothelial cells to form three-dimensional capillary-like tubular structures when cultured on a gel of basement membrane extract. The endothelial tube formation assay represents a powerful model for studying inhibition and induction of angiogenesis. Pre-labeled HUVEC with Calcein AM were seeded in a 96-well culture plate coated with extracellular metrix (Chemicon international Cat. ECM625) and treated with test peptide—10 micrograms per ml—in full growth medium. […] control was vehicle only. The endothelial cells were allowed to form tubes for 20 hours and were then examined under an inverted fluorescent microscope. Duplicate wells for each treatment were photographed and quantitatively analyzed for an average tubule length using image analysis software ImageProPlus. Raw data were expressed as average tubule lengths in pixels ±standard deviation. Statistic p values were computed using the Student's t-test.
# Interferon-γ (IFN-γ) = test: Th1/Th2 cytokine profiling assay: IFN-γ; assay type: cell-based, Balb/c mice; conditions: Ovalbumin-restimulated spleen cells; test peptide 10 micrograms per ml; 72 hours
# From the text: as §1
# HCMV strain AD169 = test: HCMV plaque reduction assay in MRC-5 cells; assay type: cell-based; conditions: HCMV AD169 in MRC-5 cells; peptide 10 micrograms per ml; 7-10 days
# From the text: Ganciclovir was used as positive control.
# Streptococcus pneumoniae = Streptococcus pneumoniae assay; assay type: cell-based; conditions: Streptococcus pneumoniae growth; peptide 10 micrograms per ml; read visually
# [5] = tested on: Primary Human endothelial cells (HUVEC); test: Endothelial cell migration assay; assay type: cell-based; conditions: test peptide 10 micrograms per ml, 22 hours
# Experimental: Endothelial cell migration is a prerequisite for the process of neo-vascularization or angiogenesis which is crucial for on-site recruitment of blood vessel formation. Primary Human endothelial cells (HUVEC) were seeded in insert chambers with 3 micrometer pore size of multi-transwell plate for 6 hours at 37° C. in Endothelial Cell Basal Medium (EBM) supplemented with 0.1% bovine serum albumin. Thereafter, designated concentration of test peptide—10 micrograms per ml—was added in duplicate wells. The endothelia were allowed to migrate for 22 hours at 37° C., then, migrated cells were fixed and stained with Hoechst 33342 dye. Images of 3 fields per insert were taken and the number of migrated cells per field were quantified using the ImageProPlus software. Data were analyzed for the average number of the migrated cells and standard deviation of six data points for each treatment condition. Active test peptide against HUVEC migration was determined based on 50% inhibition of migrated cells as compared with the control. Statistic p values were computed using the Student's t-test.
# Interleukin-4 (IL-4) = test: Th1/Th2 cytokine profiling assay: IL-4; assay type: cell-based, Balb/c mice; conditions: Ovalbumin-restimulated spleen cells; test peptide 10 micrograms per ml; 72 hours
# From the text: as §1
# RAW 264.7 cells = test: Phagocytosis assay (Fluorescein-labeled Escherichia coli); assay type: cell-based, mouse; conditions: test peptide 10 micrograms per ml, flow cytometry
# [6] = tested on: Tumor Necrosis Factor-α (TNF-α); test: Th1/Th2 cytokine profiling assay: TNF-α; assay type: cell-based, Balb/c mice; conditions: Ovalbumin-restimulated spleen cells; test peptide 10 micrograms per ml; 72 hours
# From the text: as §1
# A549 cells = test: Propidium iodide cell cycle assay; assay type: cell-based, human; conditions: test peptide 10 micrograms per ml, 24 hours, FACS
# From the text: Human A549 cells (carcinomic human alveolar basal epithelial cells) were utilized in the experiments employing the Propidium iodide cell cycle assay. The eukaryotic cell cycle is a series of events that take place in a cell leading to its replication. The regulation of the cell cycle involves steps crucial to the cell, including detecting and repairing genetic damage, and provision of various checks to prevent uncontrolled cell division. The molecular events that control the cell cycle are ordered and directional; that is, each process occurs in a sequential fashion. The cell cycle consists of four distinct phases: G1 phase, S phase, G2 phase (collectively known as interphase) and M phase. M phase is itself composed of two tightly coupled processes: mitosis, in which the cell's chromosomes are divided between the two daughter cells, and cytokinesis, in which the cell's cytoplasm divides forming distinct cells. Activation of each phase is dependent on the proper progression and completion of the previous one. Cells that have temporarily or reversibly stopped dividing are said to have entered a state of quiescence called Go phase. The relatively brief M phase consists of nuclear division and cytoplasmic division. The first phase within interphase, from the end of the previous M phase till the beginning of DNA synthesis is called G1 (G indicating gap or growth). During this phase the biosynthetic activities of the cell resume at a high rate. This phase is marked by synthesis of various enzymes that are required in S phase, mainly those needed for DNA replication. The ensuing S phase starts when DNA synthesis commences; when it is complete, all of the chromosomes have been replicated. The cell then enters the G2 phase, which lasts until the cell enters mitosis. Significant protein synthesis occurs during this phase, mainly involving the production of microtubules, which are required during the process of mitosis. […]
# Propidium iodide is an intercalating agent and a fluorescent molecule that can be used to stain DNA. […] After incubation for 40 min at 37° C., cells were analyzed in the FACS.
# [7] = tested on: Human Peripheral Blood Mononuclear Cells (PBMC); test: T cell proliferation assay (PHA, 3H-thymidine); assay type: cell-based; conditions: test peptide 10 micrograms per ml
# Experimental: Human Peripheral Blood Mononuclear Cells (PBMC) were obtained from normal human donors. The T cell proliferation was induced by stimulation of the cells with the T cell mitogen phytohemagglutinin (PHA), either in the absence (positive proliferation control), or in the presence of test peptide—10 micrograms per ml—to examine their effects on the T cell proliferating response. 10^5/well PBMC were plated in 96-well microtiter plates and assayed in duplicate with the peptide. Cell cultures were incubated at 37° C. for 3 days in a 5% CO2 incubator and were thereafter pulsed with 1 microCi/well ^3H-thymidine for additional 12 hours of culture. At the end of incubation time, the plates were harvested and the cells counted by liquid scintillation for the incorporation of ^3H-thymidine as a measure of T cell proliferation.
# [8] = tested on: hepatitis B virus (HBV) ayw strain; test: HBV replication assay in HepG2-2.2.15 cells (TaqMan PCR of secreted HBV DNA); assay type: cell-based; conditions: test peptide 10 micrograms per ml, six days, HBV DNA by TaqMan PCR
# Interleukin-2 (IL-2) = test: Th1/Th2 cytokine profiling assay: IL-2; assay type: cell-based, Balb/c mice; conditions: Ovalbumin-restimulated spleen cells; test peptide 10 micrograms per ml; 72 hours
# From the text: as §1
smiles,measurement,setting,value
Cc1cn([C@H]2C[C@H](N=[N+]=[N-])[C@@H](CO)O2)c(=O)[nH]c1=O [AZT],% CPE reduction in HIV-1 infected CEM-SS cells,HIV-1IIIB,99%
"CC(C)C[C@H](NC(=O)CNC(=O)[C@H](CCC(=O)O)NC(=O)CNC(=O)[C@H](C)N)C(=O)N[C@@H](CC(N)=O)C(=O)N[C@@H](CO)C(=O)N[C@@H](CCC(N)=O)C(=O)N[C@@H](Cc1ccccc1)C(=O)N[C@@H](Cc1c[nH]c2ccccc12)C(=O)N[C@@H](CO)C(=O)N[C@@H](CC(C)C)C(=O)N[C@@H](C)C(=O)N[C@@H](C)C(=O)N1CCC[C@H]1C(=O)N[C@@H](CCC(N)=O)C(=O)N[C@@H](CCCNC(=N)N)C(=O)N[C@@H](Cc1ccccc1)C(N)=O [Neuropeptide AF, Ala-Gly-Glu-Gly-Leu-Asn-Ser-Gln-Phe-Trp-Ser-Leu-Ala-Ala-Pro-Gln-Arg-Phe-NH2] (H-AGEGLNSQFWSLAAPQRF-NH2)",% CPE reduction in HIV-1 infected CEM-SS cells,HIV-1IIIB,0.0%
same,viability at 10 micrograms per ml,[1],81.6%
same,"viability at 144 h, 10 micrograms per ml",[2],100%
same,% inhibition,Pseudomonas aeruginosa,0.0%
same,viability at 144 h,[3],100%
same,% of SAC/IL2 induced control,[4],105.7%
same,% inhibition,MRSA,0.0%
same,IL-5 spleen cells; TH2 response (% of control),Interleukin-5 (IL-5),52.2 % of control
same,% of LPS induction,TNF alpha,104.7%
same,% inhibition of tube formation,HUVEC,−9%
same,IFNγ spleen cells; TH1 response (% of control),Interferon-γ (IFN-γ),84.8 % of control
same,% plaque reduction,HCMV strain AD169,6.9%
same,% inhibition,Streptococcus pneumoniae,0.0%
same,% inhibition of migration,[5],−4%
same,IL-4 spleen cells; TH2 response (% of control),Interleukin-4 (IL-4),0.0 % of control
same,% of control phagocytosis,RAW 264.7 cells,105.9%
same,TNF-a spleen cells; TH1 response (% of control),[6],92.1 % of control
same,Cell cycle analysis G0/G1,A549 cells,55.5
same,Cell cycle analysis G2/M,A549 cells,10.0
same,Cell cycle analysis S,A549 cells,34.5
same,% of PHA induced control,[7],103.8%
same,% inhibition of HBV replication in HEP G2 cells,[8],42.6%
same,IL-2 spleen cells (% of control),Interleukin-2 (IL-2),0.0 % of control
CC(C)(C)NC(=O)[C@@H]1CN(Cc2cccnc2)CCN1C[C@@H](O)C[C@@H](Cc1ccccc1)C(=O)N[C@H]1c2ccccc2C[C@H]1O [Indinavir],% CPE reduction in HIV-1 infected CEM-SS cells,HIV-1IIIB,100%

# Reference: patent publication US20100204130A1, “USE OF HUMAN NEUROPEPTIDE AS A THERAPEUTIC AGENT” (priority 2007, published 2010)
